Measurements published in article PMC3676426 (European journal of clinical pharmacology, 2013).
Read-outs that look alike come from different tables or passages of the source.

Legend:
[1] = format: in vivo, human; settings: atorvastatin 40 mg for five days, CGC/CGC, CGC/TTT
[2] = mainly through active tubular secretion; cited from earlier work
[3] = both, human, in vivo, po, 100 mg
[4] = single 600 mg dose of cyclosporine; cited from earlier work
clinical = settings: both, human, in vivo, 100 mg; for AUC(0-inf): AUC0-∞; for CL renal: CLR; for half-life: t1/2
[5] = atorvastatin 80 mg; cited from earlier work
[6] = simvastatin 40 mg co-administered; cited from earlier work
[7] = simvastatin 80 mg; cited from earlier work

CC(C)c1c(C(=O)Nc2ccccc2O)c(-c2ccccc2)c(-c2ccc(F)cc2)n1CCC1CC(O)CC(=O)O1 (stereo not drawn) [2-hydroxyatorvastatin lactone]
influence of ABCB1 diplotype on pharmacokinetic parameters [1]: not significantly affected

CC(C)c1c(C(=O)Nc2ccccc2O)c(-c2ccccc2)c(-c2ccc(F)cc2)n1CCC(O)CC(O)CC(=O)O (stereo not drawn) [2-hydroxyatorvastatin]
influence of ABCB1 diplotype on pharmacokinetic parameters [1]: not significantly affected

CC(C)c1c(C(=O)Nc2ccc(O)cc2)c(-c2ccccc2)c(-c2ccc(F)cc2)n1CCC1CC(O)CC(=O)O1 (stereo not drawn) [4-hydroxyatorvastatin lactone]
influence of ABCB1 diplotype on pharmacokinetic parameters [1]: not significantly affected

CC(C)c1c(C(=O)Nc2ccc(O)cc2)c(-c2ccccc2)c(-c2ccc(F)cc2)n1CC[C@@H](O)C[C@@H](O)CC(=O)O [4-hydroxyatorvastatin]
influence of ABCB1 diplotype on pharmacokinetic parameters [1]: not significantly affected

CC(C)c1c(C(=O)Nc2ccccc2)c(-c2ccccc2)c(-c2ccc(F)cc2)n1CC[C@@H]1C[C@@H](O)CC(=O)O1 [Atorvastatin lactone, atorvastatin lactone]
influence of ABCB1 diplotype on pharmacokinetic parameters [1]: did not differ significantly

N[C@@H](CC(=O)N1CCn2c(nnc2C(F)(F)F)C1)Cc1cc(F)c(F)cc1F [Sitagliptin, sitagliptin]
drug excreted unchanged in the urine [2]: about 80%
Cmax [3]: 438 ± 152 ng/mL
effect of cyclosporine on Cmax [4]: modestly increased
effect of cyclosporine on overall plasma exposure [4]: did not have a significant effect
AUC(0-inf) (clinical): 3220 ng·h/mL
CL renal (clinical): 254 mL/min
Cmax (clinical): 399 ng/mL
half-life (clinical): 7.4 ± 2.5 h
AUC(0-t) (clinical; po, AUC0-24): 3230 ± 1220 ng·h/mL
AUC(0-inf) (clinical; po): 3640 ± 1440 ng·h/mL
CL renal (clinical; po): 254 ± 176 mL/min
Cmax (clinical; po): 454 ± 180 ng/mL
half-life (clinical; po): 7.3 ± 3 h

Cn1c(=O)cc(N2CCC[C@@H](N)C2)n(Cc2ccccc2C#N)c1=O [alogliptin]
effect of atorvastatin on multiple-dose pharmacokinetics [5]: did not alter

N#C[C@@H]1C[C@@H]2C[C@@H]2N1C(=O)[C@@H](N)C12CC3CC(CC(O)(C3)C1)C2 [saxagliptin]
increase of AUC by simvastatin [6]: 12%

N#C[C@@H]1CCCN1C(=O)CNC12CC3CC(CC(O)(C3)C1)C2 [vildagliptin]
effect of simvastatin on multiple-dose pharmacokinetics [7]: did not alter
